Among the data in article PMC6409468, “Isolation and identification of angiotensin I-converting enzyme inhibitory peptides derived from thermolysin-injected beef M. longissimus” (Asian-Australasian Journal of Animal Sciences, 2018) are IC50 values, retold here.

Residues, ends and D or L forms follow the SMILES beside them. No end group written: not given here.

This test addresses T1, ACE (from rabbit lung) (Oryctolagus cuniculus, UniProt P12822).
T1 construct: ACE (peptidyldipeptide hydrolase from rabbit lung acetone extract); purchased Sigma; host or cells: rabbit lung (acetone extract)
T1 sequence (P12822 34-1310): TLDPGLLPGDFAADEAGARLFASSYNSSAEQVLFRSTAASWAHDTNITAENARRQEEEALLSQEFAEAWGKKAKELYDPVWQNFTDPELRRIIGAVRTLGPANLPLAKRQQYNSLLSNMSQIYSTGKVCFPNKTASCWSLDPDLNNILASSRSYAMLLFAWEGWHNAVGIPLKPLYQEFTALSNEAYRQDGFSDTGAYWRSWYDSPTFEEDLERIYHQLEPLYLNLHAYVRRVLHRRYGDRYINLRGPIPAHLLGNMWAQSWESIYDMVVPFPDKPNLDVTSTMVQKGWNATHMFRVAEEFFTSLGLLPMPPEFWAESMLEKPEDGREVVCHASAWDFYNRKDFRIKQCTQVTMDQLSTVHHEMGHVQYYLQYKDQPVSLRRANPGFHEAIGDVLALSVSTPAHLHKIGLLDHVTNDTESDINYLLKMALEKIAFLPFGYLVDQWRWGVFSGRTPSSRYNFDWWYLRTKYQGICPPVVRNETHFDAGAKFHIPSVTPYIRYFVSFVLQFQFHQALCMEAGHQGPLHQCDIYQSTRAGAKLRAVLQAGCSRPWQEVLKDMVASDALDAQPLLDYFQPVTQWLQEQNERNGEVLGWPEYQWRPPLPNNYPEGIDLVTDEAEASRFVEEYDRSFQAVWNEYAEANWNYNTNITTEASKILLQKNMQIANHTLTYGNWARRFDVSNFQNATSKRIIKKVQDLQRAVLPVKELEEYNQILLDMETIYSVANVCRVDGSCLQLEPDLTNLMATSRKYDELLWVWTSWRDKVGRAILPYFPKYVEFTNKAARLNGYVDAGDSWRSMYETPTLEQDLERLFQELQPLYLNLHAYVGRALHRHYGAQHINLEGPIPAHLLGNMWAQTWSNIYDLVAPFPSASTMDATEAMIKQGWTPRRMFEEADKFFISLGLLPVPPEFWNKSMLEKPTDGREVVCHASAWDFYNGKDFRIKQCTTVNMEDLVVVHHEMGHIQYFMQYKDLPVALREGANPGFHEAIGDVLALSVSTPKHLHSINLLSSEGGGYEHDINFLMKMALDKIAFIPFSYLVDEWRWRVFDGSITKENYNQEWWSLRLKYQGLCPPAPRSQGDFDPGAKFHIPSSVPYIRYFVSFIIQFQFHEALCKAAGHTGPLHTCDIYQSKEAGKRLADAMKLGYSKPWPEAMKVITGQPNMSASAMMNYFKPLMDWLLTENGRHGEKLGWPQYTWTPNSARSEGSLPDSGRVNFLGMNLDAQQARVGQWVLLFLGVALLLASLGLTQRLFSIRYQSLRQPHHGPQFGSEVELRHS
As to the kind of experiment: ACE inhibitory activity, spectrophotometric method (HHL substrate, hippuric acid at 228 nm). Type of test: biochemical. To be noted: chemically synthesized peptides. The protocol: ACE inhibitory activity determination was achieved using the spectrophotometric method described by Cushman and Cheung. For each assay, 100 μL of HHL (12.5 mM in 0.05 M sodium borate buffer) was incubated at 37°C for 5 min. After incubation, 50 μL of bovine peptide extracts and 150 μL of ACE (peptidyldipeptide hydrolase from rabbit lung acetone extract) were added and the mixture incubated for 1 h. The enzymatic reaction was stopped by adding 250 μL of 0.5 N HCl. The hippuric acid generated by the action of the angiotensin-converting enzyme on HHL was extracted from the acidified solution into 1 mL ethyl acetate by vortex mixing for 15 s. This was centrifuged at 3,290×g for 10 min at 4°C, and a 0.7 mL aliquot of each ethyl acetate layer was transferred to clean tubes and evaporated by heating at 95°C for 20 min in a water bath. The hippuric acid was redissolved in 3 mL of 1 M NaCl, and the amount formed was determined by absorbance at 228 nm. The IC50 value, defined as the concentration of a peptide that inhibits 50% of the ACE activity, was determined by measuring the ACE inhibitory activity and the peptide contents of each of the extracts after regression analysis. ACE inhibitory activity (%) was determined using the equation:
ACE inhibitory activity (%)=[1-(S-SC)/(B-BC)]×100
where S and B are optical density (OD) values for the sample and blank, respectively, and SC and BC are the OD values for the sample control and blank, respectively.
For orientation: IC50 means the concentration needed to halve the response being measured. Consider `N[C@@H](Cc1ccccc1)C(=O)NCC(=O)N[C@@H](Cc1ccc(O)cc1)C(=O)O` [Phe-Gly-Tyr] (H-Phe-Gly-Tyr-OH), for which the concentration for half-maximal inhibition (IC50) was determined as 2.69 mM.

In the case of `N[C@@H](Cc1ccc(O)cc1)C(=O)N[C@@H](Cc1ccc(O)cc1)C(=O)O` [Tyr-Tyr] (H-Tyr-Tyr-OH), the half-maximal inhibitory concentration (IC50) stood at 8.6 mM.

On to LWHHT [Leu-Trp-His- His-Thr], for which the IC50 was determined as 5.21 mM.

`CSCC[C@H](N)C(=O)N[C@@H](C)C(=O)N[C@@H](CC(=O)O)C(=O)N[C@@H](C)C(=O)O` [Met-Ala-Asp-Ala] (H-MADA-OH): the IC50 amounted to 5.92 mM.

The compound QPSGSQ [Gln-Pro-Ser-Gly-Ser-Gln] showed a half-maximal inhibitory concentration (IC50) of 8.78 mM.

Compound `N=C(N)NCCC[C@H](NC(=O)[C@@H](N)Cc1ccc(O)cc1)C(=O)N[C@@H](CCC(N)=O)C(=O)O` [Tyr-Arg-Gln] (H-Tyr-Arg-Gln-OH) had a half-inhibitory concentration (IC50) of 3.09 mM.

In turn, `N[C@@H](Cc1ccc(O)cc1)C(=O)NCC(=O)O` [Tyr-Gly] registered an IC50 of 12.7 mM.

`NC(=O)C[C@H](NC(=O)[C@H](Cc1ccccc1)NC(=O)[C@@H](N)Cc1ccc(O)cc1)C(=O)N[C@@H](CCC(=O)O)C(=O)O` [Tyr-Phe-Asn-Glu] (H-YFNE-OH) yielded a half-inhibitory concentration (IC50) of 7.62 mM.

The compound `CC(C)C[C@H](N)C(=O)N[C@@H](CO)C(=O)N[C@@H](Cc1c[nH]c2ccccc12)C(=O)O` [Leu-Ser-Trp] (H-Leu-Ser-Trp-OH) had a 50% inhibitory concentration (IC50) of 0.89 mM.

Take `CC(C)[C@H](N)C(=O)N[C@@H](CO)C(=O)N[C@@H](CO)C(=O)N[C@H](C(=O)O)C(C)C` [Val-Ser-Ser-Val] (H-VSSV-OH): inhibition was half-maximal at 8.49 mM (IC50).
